From the supplement of paper PMC10307832

Tests used:
Assay in all cases: relative viability (nuclei count vs DMSO), 5 days (fraction); higher = more cells survive
Quizartinib + Alpelisib = compound: CC(C)(C)c1cc(NC(=O)Nc2ccc(-c3cn4c(n3)sc3cc(OCCN5CCOCC5)ccc34)cc2)no1 [Quizartinib] + Cc1nc(NC(=O)N2CCC[C@H]2C(N)=O)sc1-c1ccnc(C(C)(C)C(F)(F)F)c1 [Alpelisib] (partner 2 µM)
Procedure, shortened: (§1)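 Relative viability divides the nuclei count in treated wells by that in vehicle wells. Lung cancer cell lines were seeded in 1536-well plates, dosed by pin tool the next day, and fixed and stained after 5 days in one step with final 0.05% Triton X-100, 1% formaldehyde and 1 ug/ml Hoechst. Dosing was a single drug or a fixed anchor-drug dose plus five library-drug doses (not always all listed) in √10 steps, and values are medians of duplicate plates imaged at 4×.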

YM155 + Foretinib = compound: COCC[n+]1c2c(n(Cc3cnccn3)c1C)C(=O)c1ccccc1C2=O [YM155] + COc1cc2c(Oc3ccc(NC(=O)C4(C(=O)Nc5ccc(F)cc5)CC4)cc3F)ccnc2cc1OCCCN1CCOCC1 [Foretinib] (partner 0.25 µM)
Procedure, shortened: as §1

Quizartinib + Dasatinib = compound: CC(C)(C)c1cc(NC(=O)Nc2ccc(-c3cn4c(n3)sc3cc(OCCN5CCOCC5)ccc34)cc2)no1 [Quizartinib] + Cc1nc(Nc2ncc(C(=O)Nc3c(C)cccc3Cl)s2)cc(N2CCN(CCO)CC2)n1 [Dasatinib] (partner 0.075 µM)
Procedure, shortened: as §1

YM155 + Crizotinib = compound: COCC[n+]1c2c(n(Cc3cnccn3)c1C)C(=O)c1ccccc1C2=O [YM155] + C[C@@H](Oc1cc(-c2cnn(C3CCNCC3)c2)cnc1N)c1c(Cl)ccc(F)c1Cl [Crizotinib] (partner 1 µM)
Procedure, shortened: as §1

Cell Line | relative viability (Quizartinib + Alpelisib; first compound 0.001 µM) | relative viability (Quizartinib + Alpelisib; first compound 0.003162 µM) | relative viability (Quizartinib + Alpelisib; first compound 0.01 µM) | relative viability (Quizartinib + Alpelisib; first compound 0.03162 µM) | relative viability (Quizartinib + Alpelisib; first compound 0.1 µM) | relative viability (YM155 + Foretinib; first compound 0.002 µM) | relative viability (YM155 + Foretinib; first compound 0.006325 µM) | relative viability (YM155 + Foretinib; first compound 0.02 µM) | relative viability (YM155 + Foretinib; first compound 0.06325 µM) | relative viability (Quizartinib + Dasatinib; first compound 0.001 µM) | relative viability (Quizartinib + Dasatinib; first compound 0.003162 µM) | relative viability (Quizartinib + Dasatinib; first compound 0.01 µM) | relative viability (Quizartinib + Dasatinib; first compound 0.03162 µM) | relative viability (Quizartinib + Dasatinib; first compound 0.1 µM) | relative viability (YM155 + Crizotinib; first compound 0.002 µM) | relative viability (YM155 + Crizotinib; first compound 0.02 µM) | relative viability (YM155 + Crizotinib; first compound 0.06325 µM) | relative viability (YM155 + Crizotinib; first compound 0.006325 µM)
NCI-H1666 | 0.793 | 0.956 | 1.03 | 0.742 | 1.02 | 0.917 | 0.996 | 0.988 | 0.942 | 0.836 | 0.782 | 0.737 | 0.582 | 0.757 | 1.05 | 1.01 | 0.879 | –
NCI-H650 | 1.02 | 1.12 | 1.14 | 1.14 | 1.14 | 0.985 | 0.932 | 0.988 | 1.06 | 0.484 | 0.524 | 0.391 | 0.415 | 0.506 | 0.835 | 0.747 | 0.52 | 0.655
COR-L23 | 0.725 | 0.708 | 0.843 | 0.61 | 0.759 | 0.941 | 0.866 | 0.658 | 0.244 | 0.452 | 0.437 | 0.557 | 0.414 | 0.461 | 0.649 | 0.403 | 0.105 | 0.569
NCI-H1734 | 0.561 | 0.716 | 0.642 | 0.699 | 0.665 | 0.853 | 0.723 | 0.914 | 0.989 | 0.408 | 0.421 | 0.431 | 0.481 | 0.453 | 0.646 | 0.766 | 0.675 | 0.662
UMC-11 | 0.924 | 0.948 | 1.13 | 0.947 | 1.1 | 0.966 | 1.1 | 1.08 | 1.12 | – | 0.386 | 0.487 | 0.434 | 0.454 | 0.525 | 0.684 | 0.505 | 0.602
NCI-H596 | 0.521 | 0.498 | 1.34 | 0.407 | 0.396 | 0.79 | 0.833 | 0.946 | 0.829 | 0.658 | 0.546 | 0.578 | 0.592 | 0.495 | – | 0.997 | 0.974 | 0.965
NCI-H2228 | 0.771 | 0.58 | 0.79 | 0.721 | 0.678 | 0.772 | 0.912 | 0.867 | 0.708 | 0.608 | 0.413 | 0.597 | 0.494 | 0.509 | 0.527 | 0.368 | 0.563 | 0.445
EPLC-272H | 0.667 | 1.04 | 0.95 | 0.969 | 1.06 | 0.694 | 0.71 | 0.849 | 0.735 | 0.326 | 0.366 | 0.4 | 0.38 | 0.377 | 0.692 | 0.952 | 1.06 | 0.814
RERF-LC-KJ | 0.78 | 0.597 | 0.782 | 0.747 | 0.69 | 0.945 | 0.837 | 0.909 | 0.854 | 0.765 | 0.755 | 0.794 | 0.414 | 0.681 | 0.775 | 0.868 | 0.766 | 0.761
NCI-H727 | 0.482 | – | 0.588 | 0.586 | 0.556 | 0.951 | 0.902 | 1.14 | 1.03 | – | 0.377 | 0.411 | 0.322 | 0.318 | 0.828 | 0.868 | 0.738 | 0.821
SK-LU-1 | 0.96 | 0.876 | 1.17 | 0.982 | 0.81 | 0.766 | 0.738 | 0.904 | 0.661 | 0.178 | 0.169 | 0.204 | 0.183 | 0.232 | 0.871 | 1.11 | 0.805 | 0.931
PC-14 | 0.854 | 0.903 | 1.03 | 0.877 | 0.89 | 0.83 | 0.911 | 0.908 | 1.02 | 0.262 | 0.238 | 0.321 | – | 0.254 | 0.948 | 1.04 | 0.818 | 0.931
NCI-H1437 | 0.911 | 0.883 | 1.13 | 0.749 | 0.711 | 1.21 | 1.24 | 1.26 | 0.984 | 0.375 | 0.467 | 0.384 | 0.27 | 0.363 | 0.878 | 0.902 | 0.681 | 0.9
ABC-1 | 0.951 | 0.996 | 1.02 | 0.497 | 1.12 | 1.03 | 0.824 | 0.206 | 0.2 | 0.578 | 0.572 | 0.661 | – | 0.502 | 0.844 | 0.166 | 0.15 | 0.341
SK-MES-1 | 0.838 | 0.424 | 1.06 | 0.865 | 0.97 | 0.9 | 0.889 | 0.921 | 0.921 | 0.337 | 0.354 | 0.404 | – | 0.273 | 1.01 | 1.07 | 0.85 | 0.963
LK-2 | 1.14 | 1.08 | 1.04 | 1.03 | 1.06 | 1.02 | 1.32 | 1.29 | 1.22 | 0.31 | – | 0.313 | 0.205 | 0.284 | 0.226 | 0.214 | 0.241 | 0.236
NCI-H2085 | 0.88 | 0.881 | 0.997 | 0.822 | 0.827 | 0.887 | 0.922 | 0.915 | 0.629 | 0.282 | 0.237 | 0.253 | 0.231 | 0.236 | 0.698 | 0.77 | 0.477 | 0.767
NCI-H2087 | 1.05 | 0.98 | 1.19 | 1.14 | 0.836 | 1.17 | 0.968 | 1.07 | 0.869 | – | 0.699 | 0.863 | 0.626 | 0.979 | 0.914 | 0.883 | 0.648 | 0.71
